Laboratory results as given in ChEMBL document CHEMBL1201862, “PubChem BioAssay data set” (2004).
Activity calls are given as the source filed them.

Columns and labels:
[1] = biological target: Paired box protein Pax-8 (Homo sapiens, UniProt Q06710); assay: inhibitors of PAX8-driven TPO luciferase reporter, dose response, RMG-I cells, cherry-pick (AID 687027); format: functional, cell-based;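 further: luciferase reporter driven by Pax8 target thyroperoxidase promoter measured by SteadyGlo luminescence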
Sequence of Paired box protein Pax-8 (Q06710 whole entry): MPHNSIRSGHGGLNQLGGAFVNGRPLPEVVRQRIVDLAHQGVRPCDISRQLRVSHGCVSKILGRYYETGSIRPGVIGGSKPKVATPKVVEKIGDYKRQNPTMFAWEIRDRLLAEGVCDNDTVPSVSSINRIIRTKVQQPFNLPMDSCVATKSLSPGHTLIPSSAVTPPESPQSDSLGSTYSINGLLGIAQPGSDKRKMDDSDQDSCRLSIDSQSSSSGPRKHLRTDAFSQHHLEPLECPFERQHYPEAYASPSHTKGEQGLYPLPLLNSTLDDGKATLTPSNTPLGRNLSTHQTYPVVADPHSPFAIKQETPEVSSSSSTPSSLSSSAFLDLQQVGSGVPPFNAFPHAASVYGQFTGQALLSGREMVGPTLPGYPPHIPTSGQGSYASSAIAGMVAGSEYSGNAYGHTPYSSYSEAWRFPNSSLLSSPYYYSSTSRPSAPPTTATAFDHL

[2] = test system: BJ; assay: cytotoxicity toward Ras-transformed BJeLR fibroblasts, dose response, cell-based, alamar blue fluorescence, cherrypicked samples (AID 2631); format: functional; details: Homo sapiens;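 further: confirmatory dose-response assay in RAS-dependent BJ fibroblasts engineered with TERT, LT and ST, with cytotoxicity read by fluorescence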
[3] = growth suppression of beta-catenin-knockout colon cells, dose response, cell-based, HCT116, human colon tumor (AID 1045); format: functional;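 further: HCT116 colon tumor cells with beta catenin knocked out; cells exposed to compound for 60 hours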
[4] = non-specific cell cytotoxicity, dose response, cytotoxicity control for PAX8 inhibitor project, plate reader, dry powder samples (AID 743021); format: functional, cell-based
[5] = biological target: Glutathione S-transferase omega-1 (Homo sapiens, UniProt P78417); assay: GSTO1 inhibitor potency, recombinant enzyme, late-stage follow-up, biochemical, SE-Rh probe, in-gel fluorescence, powder samples (AID 463081); format: functional
Sequence of Glutathione S-transferase omega-1 (P78417 whole entry): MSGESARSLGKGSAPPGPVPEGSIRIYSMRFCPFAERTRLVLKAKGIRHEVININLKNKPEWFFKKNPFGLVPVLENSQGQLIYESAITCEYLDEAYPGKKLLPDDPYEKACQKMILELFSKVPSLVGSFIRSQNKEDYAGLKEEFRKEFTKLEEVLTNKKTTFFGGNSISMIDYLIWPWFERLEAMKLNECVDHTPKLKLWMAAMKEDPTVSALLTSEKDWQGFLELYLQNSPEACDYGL

[6] = biological target: T1, Heat shock factor protein 1 (Mus musculus, UniProt P38532); assay: inhibition of MG132-induced HSE-luciferase signal, confirmation, cell-based, NIH3T3, luminescence, dose retest (AID 2382); format: functional;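 further: NIH3T3 fibroblasts with HSF1-driven luciferase reporter stressed by proteasome inhibitor MG132; luminescence from HSF1-driven luciferase expression after 8 hours of MG132 stress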
T1 sequence (P38532 whole entry): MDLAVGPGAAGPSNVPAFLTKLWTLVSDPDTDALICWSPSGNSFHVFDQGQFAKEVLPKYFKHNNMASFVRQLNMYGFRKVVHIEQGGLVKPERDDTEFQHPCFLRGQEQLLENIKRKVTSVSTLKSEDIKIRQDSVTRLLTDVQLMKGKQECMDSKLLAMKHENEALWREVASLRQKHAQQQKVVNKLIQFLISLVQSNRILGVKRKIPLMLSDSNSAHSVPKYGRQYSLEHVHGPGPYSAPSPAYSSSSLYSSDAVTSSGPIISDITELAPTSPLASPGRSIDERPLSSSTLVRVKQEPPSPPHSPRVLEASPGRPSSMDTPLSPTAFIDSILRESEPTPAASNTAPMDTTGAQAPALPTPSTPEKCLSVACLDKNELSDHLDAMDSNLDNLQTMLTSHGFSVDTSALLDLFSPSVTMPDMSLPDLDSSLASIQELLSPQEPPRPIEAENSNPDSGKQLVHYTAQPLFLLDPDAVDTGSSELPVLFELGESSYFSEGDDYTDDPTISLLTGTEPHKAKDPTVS

[7] = test system: BJ; assay: cells; format: functional, cell-based; details: Homo sapiens
[8] = biological target: T2, Protein RecA (Mycobacterium tuberculosis, UniProt P9WHJ3); assay: Fluorescence Cell-Free Homogeneous Dose Retest to Identify Inhibitors of RecA-Intein Splicing Activity. [Related pubchem assays (depositor defined):AID2097, AID2223, AID489010, AID492950]; format: functional
T2 sequence (P9WHJ3 whole entry): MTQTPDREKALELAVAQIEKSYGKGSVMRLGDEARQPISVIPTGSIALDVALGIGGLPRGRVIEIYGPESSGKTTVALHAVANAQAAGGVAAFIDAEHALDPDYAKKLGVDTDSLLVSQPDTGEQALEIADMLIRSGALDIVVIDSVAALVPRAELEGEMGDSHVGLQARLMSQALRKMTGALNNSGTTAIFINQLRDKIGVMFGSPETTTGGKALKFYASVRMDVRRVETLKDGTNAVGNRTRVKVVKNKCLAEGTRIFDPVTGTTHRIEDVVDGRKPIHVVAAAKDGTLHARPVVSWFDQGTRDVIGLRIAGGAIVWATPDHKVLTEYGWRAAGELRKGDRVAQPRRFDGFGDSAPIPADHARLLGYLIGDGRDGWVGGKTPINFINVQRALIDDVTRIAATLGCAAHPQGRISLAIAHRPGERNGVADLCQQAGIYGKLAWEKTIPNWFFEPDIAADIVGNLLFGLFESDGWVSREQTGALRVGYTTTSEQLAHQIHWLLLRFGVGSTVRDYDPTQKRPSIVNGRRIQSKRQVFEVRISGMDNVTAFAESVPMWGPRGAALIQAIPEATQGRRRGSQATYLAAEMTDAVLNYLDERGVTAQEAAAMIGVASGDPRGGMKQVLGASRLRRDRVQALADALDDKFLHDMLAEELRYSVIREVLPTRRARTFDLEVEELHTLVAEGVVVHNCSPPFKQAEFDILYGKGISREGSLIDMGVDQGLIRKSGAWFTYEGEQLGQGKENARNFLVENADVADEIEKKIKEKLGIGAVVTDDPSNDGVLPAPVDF

[9] = cytotoxicity toward DRD oncogenic fibroblasts, dose response, cell-based, non-viral oncogenic, luminescence (AID 1934); format: functional; details: Homo sapiens
[10] = test system: BJ; assay: cytotoxicity toward BJ-TERT fibroblasts, dose response, cell-based, RAS-independent, luminescence (AID 1933); format: functional; details: Homo sapiens
[11] = growth suppression of PTEN-null colon cells, dose response, cell-based, HCT116 PTEN knockout (AID 1047); format: functional;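 further: HCT116 colon tumor cells with PTEN knocked out; cells exposed to compound for 60 hours before readout; potency for loss of cell viability measured by luminescence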
[12] = test system: BJ; assay: cytotoxicity toward BJ-TERT-LT-ST fibroblasts, dose response, cell-based, RAS-independent, luminescence (AID 1935); format: functional; details: Homo sapiens;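 further: BJ fibroblasts immortalized with TERT plus LT and ST oncogenes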
[13] = biological target: Sphingosine 1-phosphate receptor 4 (Homo sapiens, UniProt O95977); assay: S1P4 receptor agonists, human, late-stage follow-up, cell-based, fluorescence, synthesized compounds (AID 463107); format: functional
Sequence of Sphingosine 1-phosphate receptor 4 (O95977 whole entry): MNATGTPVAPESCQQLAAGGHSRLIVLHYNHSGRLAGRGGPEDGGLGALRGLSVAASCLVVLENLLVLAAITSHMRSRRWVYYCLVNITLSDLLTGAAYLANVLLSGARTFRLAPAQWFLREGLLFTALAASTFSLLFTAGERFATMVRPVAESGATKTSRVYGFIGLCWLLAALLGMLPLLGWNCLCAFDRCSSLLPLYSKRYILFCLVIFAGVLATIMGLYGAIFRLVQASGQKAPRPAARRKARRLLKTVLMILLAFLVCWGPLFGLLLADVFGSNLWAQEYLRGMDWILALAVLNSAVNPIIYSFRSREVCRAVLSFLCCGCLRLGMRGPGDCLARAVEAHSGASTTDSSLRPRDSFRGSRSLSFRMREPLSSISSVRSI

[14] = Intein inhibitors as potential Tuberculosis drugs, a cytotoxicity screen. [Related pubchem assays (depositor defined):AID2221, AID2223, AID434968, AID435010, AID449749, AID449750, AID489010]; format: functional
[15] = cytotoxicity in HEK-293T cells, dose response, cytotoxicity control for BCR NF-kB inhibitor project, luminescence, B-cell screen hits (AID 489021); format: functional, cell-based;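 further: HEK-293T cells carrying an NF-kB luciferase reporter; cells exposed to compound for about 14 hours before viability readout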
[16] = biological target: T3, Replicative DNA helicase DnaB (Mycobacterium tuberculosis, UniProt P9WMR3); assay: DnaB intein splicing inhibitors, dose response, biochemical, cell-free fluorescence (AID 449749); format: functional
T3 sequence (P9WMR3 whole entry): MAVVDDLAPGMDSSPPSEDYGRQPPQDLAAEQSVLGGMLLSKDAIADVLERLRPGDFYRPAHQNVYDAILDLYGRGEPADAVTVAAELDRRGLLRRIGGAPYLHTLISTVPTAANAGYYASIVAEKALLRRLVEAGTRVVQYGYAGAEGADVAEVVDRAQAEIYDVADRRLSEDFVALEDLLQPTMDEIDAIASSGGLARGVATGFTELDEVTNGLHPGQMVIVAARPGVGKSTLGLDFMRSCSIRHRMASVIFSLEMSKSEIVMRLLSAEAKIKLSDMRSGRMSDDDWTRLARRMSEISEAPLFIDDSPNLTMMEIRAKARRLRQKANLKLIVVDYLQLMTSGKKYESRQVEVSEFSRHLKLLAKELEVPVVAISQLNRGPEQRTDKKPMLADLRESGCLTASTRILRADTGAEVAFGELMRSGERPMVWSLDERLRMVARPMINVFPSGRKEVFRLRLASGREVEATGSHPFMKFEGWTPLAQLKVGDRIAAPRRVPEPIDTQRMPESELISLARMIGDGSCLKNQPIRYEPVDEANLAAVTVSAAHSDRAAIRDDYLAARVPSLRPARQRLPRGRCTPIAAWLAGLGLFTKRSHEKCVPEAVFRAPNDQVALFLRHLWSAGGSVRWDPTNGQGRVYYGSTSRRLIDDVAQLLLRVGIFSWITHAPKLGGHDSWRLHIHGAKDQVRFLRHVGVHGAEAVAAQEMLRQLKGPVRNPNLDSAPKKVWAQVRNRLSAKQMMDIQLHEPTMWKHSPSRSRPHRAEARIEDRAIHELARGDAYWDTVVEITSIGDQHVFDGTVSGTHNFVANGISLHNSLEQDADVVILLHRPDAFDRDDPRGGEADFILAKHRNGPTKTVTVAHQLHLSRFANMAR

[17] = Luminescent dose response cell-based high throughput screening assay for inhibitors of the Janus kinase 2 mutant JAK2V617F. [Related pubchem assays: 1446 (Primary screen.), 1521 (Confirmation assay.), 1486 (Counter screen.)]; format: functional
[18] = test system: Vero; assay: cells; format: functional; details: Chlorocebus sabaeus
[19] = biological target: Benomyl/methotrexate resistance protein (Candida albicans, UniProt P28873); assay: CaMdr1 efflux pump inhibitor potency, dose response, singleplex, Cherry Pick1 hits (AID 588608); format: functional
[20] = biological target: T4, Type-1 angiotensin II receptor (Homo sapiens, UniProt P30556); assay: AT1 receptor antagonists, dose response, selectivity assay for APJ receptor antagonist project, cell-based, uHTS hits (AID 463214); format: functional;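 further: antagonist potency against angiotensin II stimulated AT1 response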
T4 sequence (P30556 whole entry): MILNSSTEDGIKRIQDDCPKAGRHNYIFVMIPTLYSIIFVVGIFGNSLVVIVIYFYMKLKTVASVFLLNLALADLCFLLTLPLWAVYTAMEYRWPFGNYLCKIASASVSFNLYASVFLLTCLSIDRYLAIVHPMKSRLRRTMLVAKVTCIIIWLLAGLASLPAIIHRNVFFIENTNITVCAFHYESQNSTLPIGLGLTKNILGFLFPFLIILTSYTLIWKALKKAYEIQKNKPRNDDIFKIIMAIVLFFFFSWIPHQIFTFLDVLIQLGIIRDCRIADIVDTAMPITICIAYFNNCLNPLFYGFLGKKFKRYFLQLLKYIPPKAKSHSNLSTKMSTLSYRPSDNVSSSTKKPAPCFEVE

[21] = biological target: T5, Beta-galactosidase (Escherichia coli, UniProt Q8VNN2); assay: PubChem AID 485352; format: functional
T5 sequence (Q8VNN2 whole entry): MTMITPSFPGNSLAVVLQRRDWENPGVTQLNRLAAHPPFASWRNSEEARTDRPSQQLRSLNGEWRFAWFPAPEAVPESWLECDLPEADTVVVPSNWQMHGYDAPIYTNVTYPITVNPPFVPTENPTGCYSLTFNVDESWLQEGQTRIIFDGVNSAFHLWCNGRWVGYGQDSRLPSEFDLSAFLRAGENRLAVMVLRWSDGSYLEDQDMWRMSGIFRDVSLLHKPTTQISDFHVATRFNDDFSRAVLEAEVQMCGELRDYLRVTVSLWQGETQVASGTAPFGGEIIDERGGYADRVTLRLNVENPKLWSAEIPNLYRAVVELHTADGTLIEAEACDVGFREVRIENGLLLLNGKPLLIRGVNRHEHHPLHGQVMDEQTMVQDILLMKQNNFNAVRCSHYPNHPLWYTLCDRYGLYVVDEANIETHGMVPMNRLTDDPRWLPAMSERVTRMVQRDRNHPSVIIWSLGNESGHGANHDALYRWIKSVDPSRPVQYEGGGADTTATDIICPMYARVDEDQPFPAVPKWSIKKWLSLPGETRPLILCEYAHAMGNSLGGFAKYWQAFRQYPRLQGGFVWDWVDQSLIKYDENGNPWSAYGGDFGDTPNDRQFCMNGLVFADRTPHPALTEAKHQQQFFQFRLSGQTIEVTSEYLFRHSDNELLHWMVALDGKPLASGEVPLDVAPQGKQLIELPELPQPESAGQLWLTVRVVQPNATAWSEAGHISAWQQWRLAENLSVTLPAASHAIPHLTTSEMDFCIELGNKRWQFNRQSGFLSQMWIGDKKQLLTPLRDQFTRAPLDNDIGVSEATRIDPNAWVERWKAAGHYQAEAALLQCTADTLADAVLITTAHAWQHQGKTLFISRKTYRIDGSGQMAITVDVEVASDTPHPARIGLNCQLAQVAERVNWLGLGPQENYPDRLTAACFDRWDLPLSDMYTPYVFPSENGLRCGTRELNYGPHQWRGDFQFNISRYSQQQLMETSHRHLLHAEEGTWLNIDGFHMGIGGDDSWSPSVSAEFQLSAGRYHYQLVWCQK

[22] = biological target: T6, Kappa-type opioid receptor (Homo sapiens, UniProt P41145); format: functional
T6 sequence (P41145 whole entry): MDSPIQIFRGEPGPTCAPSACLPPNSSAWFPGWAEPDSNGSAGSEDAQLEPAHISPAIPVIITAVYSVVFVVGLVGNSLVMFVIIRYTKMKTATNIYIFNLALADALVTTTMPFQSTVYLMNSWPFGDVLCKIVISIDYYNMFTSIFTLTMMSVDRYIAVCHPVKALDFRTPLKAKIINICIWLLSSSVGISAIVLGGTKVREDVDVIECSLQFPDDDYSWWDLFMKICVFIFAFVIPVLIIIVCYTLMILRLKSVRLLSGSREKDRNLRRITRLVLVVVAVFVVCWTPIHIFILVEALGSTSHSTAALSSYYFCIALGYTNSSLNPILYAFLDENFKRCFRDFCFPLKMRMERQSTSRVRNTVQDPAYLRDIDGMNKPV

[23] = test system: INS1; assay: beta cell apoptosis inhibitors, cytokine rescue, dose response, luminescence, retest (AID 449756); format: functional, cell-based; details: Rattus norvegicus;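 further: cell death triggered by IL-1 beta plus TNF-alpha plus IFN-gamma mixture; protective hits raise ATP signal compared with cytokine alone wells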
[24] = biological target: T6, Kappa-type opioid receptor; format: functional; remark: listed apart in the source
[25] = HepG2 cell cytotoxicity, dose response, cytotoxicity control for non-replicating M. tuberculosis project (AID 489018); format: functional; details: Mycobacterium tuberculosis
[26] = biological target: T7, Microphthalmia-associated transcription factor (Homo sapiens, UniProt O75030); assay: TRPM1 promoter luciferase signal decrease, dose response, MITF inhibitor project, cell-based, SK-MEL-5, cherry-picked, set 3 (AID 493073); format: functional
T7 sequence (O75030 whole entry): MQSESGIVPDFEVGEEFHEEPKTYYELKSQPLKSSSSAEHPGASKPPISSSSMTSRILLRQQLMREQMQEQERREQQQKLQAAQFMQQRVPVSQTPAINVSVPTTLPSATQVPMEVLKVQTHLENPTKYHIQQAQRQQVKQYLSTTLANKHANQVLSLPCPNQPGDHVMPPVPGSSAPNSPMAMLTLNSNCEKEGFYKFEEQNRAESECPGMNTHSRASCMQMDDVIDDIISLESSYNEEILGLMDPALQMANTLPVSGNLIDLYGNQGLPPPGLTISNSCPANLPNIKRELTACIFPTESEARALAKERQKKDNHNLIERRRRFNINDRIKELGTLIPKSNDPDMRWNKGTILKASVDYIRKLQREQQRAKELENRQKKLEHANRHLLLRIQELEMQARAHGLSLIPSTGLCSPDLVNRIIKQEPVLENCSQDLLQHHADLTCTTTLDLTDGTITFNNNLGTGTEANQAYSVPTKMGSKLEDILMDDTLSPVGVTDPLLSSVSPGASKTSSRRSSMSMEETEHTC

[27] = cells; format: functional
[28] = biological target: Nonstructural protein 1 (Influenza A virus, UniProt Q194T2); format: functional, Influenza A virus (A/California/07/2009(H1N1))
Sequence of Nonstructural protein 1 (Q194T2 whole entry): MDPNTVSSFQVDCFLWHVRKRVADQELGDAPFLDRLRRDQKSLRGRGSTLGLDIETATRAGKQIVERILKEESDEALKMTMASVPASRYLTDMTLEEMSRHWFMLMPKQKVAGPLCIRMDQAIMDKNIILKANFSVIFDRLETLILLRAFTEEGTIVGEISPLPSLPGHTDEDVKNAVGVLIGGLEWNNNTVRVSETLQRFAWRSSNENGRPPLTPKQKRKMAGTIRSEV

[29] = THP-1 cell cytotoxicity, dose response, cytotoxicity control for non-replicating M. tuberculosis project (AID 489025); format: functional
[30] = THP-1 cell cytotoxicity, dose response, cytotoxicity control for Vif-APOBEC3G degradation inhibitor project, THP-1 cells (AID 1117359); format: functional; details: Human immunodeficiency virus 1, THP-1
[31] = Vero E6 cell cytotoxicity, dose response, cytotoxicity control for non-replicating M. tuberculosis project, secondary assay (AID 492998); format: functional, VeroE6; details: Vero C1008
[32] = biological target: T5, Beta-galactosidase; format: functional
[33] = biological target: Voltage-dependent T-type calcium channel subunit alpha-1H (Homo sapiens, UniProt O95180); assay: Cav3.2 T-type channel inhibitors, cell-based, synthetic library set 1, calcium flux (AID 493022); format: functional
Sequence of Voltage-dependent T-type calcium channel subunit alpha-1H (O95180 whole entry): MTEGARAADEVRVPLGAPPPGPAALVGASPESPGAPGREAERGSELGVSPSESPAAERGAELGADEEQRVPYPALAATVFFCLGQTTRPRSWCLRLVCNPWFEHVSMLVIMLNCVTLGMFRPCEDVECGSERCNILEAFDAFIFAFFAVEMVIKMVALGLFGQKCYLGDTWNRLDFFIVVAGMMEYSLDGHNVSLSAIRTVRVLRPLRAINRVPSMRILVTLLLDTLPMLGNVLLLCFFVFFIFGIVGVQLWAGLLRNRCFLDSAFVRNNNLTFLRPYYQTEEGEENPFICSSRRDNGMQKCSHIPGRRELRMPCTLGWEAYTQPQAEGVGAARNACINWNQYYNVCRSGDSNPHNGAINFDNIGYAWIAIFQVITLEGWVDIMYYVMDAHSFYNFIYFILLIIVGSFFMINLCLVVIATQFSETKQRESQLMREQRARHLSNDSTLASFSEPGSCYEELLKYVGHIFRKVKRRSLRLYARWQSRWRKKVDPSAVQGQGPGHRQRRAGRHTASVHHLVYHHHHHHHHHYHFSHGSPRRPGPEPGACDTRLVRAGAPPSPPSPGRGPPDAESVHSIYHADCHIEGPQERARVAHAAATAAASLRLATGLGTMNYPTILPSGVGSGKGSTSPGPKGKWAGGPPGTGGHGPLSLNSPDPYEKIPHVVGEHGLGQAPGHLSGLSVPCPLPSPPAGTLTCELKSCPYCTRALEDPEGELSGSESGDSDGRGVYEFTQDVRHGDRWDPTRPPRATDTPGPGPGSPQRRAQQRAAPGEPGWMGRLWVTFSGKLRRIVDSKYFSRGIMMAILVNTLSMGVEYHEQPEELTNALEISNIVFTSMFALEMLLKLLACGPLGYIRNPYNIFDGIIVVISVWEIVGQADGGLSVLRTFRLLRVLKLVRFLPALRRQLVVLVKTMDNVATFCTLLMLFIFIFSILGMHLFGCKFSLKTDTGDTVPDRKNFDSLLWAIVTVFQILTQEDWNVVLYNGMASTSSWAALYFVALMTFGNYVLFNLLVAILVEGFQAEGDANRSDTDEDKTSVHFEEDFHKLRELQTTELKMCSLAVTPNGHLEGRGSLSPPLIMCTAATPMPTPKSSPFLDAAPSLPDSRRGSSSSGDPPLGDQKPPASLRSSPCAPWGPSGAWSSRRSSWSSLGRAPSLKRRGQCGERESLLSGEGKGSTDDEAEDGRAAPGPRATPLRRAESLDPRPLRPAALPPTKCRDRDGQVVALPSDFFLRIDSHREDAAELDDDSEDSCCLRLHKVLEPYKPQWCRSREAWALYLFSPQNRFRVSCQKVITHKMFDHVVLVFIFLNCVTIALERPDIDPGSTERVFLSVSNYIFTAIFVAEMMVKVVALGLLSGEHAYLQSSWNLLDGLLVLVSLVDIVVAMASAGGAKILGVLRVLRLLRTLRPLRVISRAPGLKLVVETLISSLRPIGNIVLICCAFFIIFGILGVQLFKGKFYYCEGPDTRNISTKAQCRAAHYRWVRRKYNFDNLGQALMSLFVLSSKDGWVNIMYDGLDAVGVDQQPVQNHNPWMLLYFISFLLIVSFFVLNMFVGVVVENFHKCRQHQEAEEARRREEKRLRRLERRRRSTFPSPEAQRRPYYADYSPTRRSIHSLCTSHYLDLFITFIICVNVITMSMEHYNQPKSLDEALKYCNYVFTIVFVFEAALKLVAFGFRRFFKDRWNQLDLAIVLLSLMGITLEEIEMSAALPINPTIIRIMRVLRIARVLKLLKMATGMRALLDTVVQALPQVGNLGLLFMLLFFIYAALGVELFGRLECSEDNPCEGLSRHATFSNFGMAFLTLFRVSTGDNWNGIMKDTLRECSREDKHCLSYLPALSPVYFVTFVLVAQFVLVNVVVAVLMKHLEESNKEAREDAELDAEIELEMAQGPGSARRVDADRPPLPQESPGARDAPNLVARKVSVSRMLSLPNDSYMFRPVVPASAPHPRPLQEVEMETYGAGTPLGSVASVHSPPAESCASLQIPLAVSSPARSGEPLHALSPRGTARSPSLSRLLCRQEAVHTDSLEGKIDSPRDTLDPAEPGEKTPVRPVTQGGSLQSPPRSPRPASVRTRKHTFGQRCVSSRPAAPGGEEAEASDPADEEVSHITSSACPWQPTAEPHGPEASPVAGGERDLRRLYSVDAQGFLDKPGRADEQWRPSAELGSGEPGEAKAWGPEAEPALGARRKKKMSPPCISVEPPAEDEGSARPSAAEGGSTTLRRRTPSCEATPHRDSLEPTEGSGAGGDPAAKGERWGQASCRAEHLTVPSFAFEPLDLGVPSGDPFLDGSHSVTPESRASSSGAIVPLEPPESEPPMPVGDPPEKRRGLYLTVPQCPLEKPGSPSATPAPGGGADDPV

[34] = biological target: T7, Microphthalmia-associated transcription factor; assay: MITF Measured in Cell-Based System Using Plate Reader - 2084-01_Inhibitor_DoseNoFile_CherryPick_Activity_Set2. [Related pubchem assays (depositor defined):AID488944]; format: functional
[35] = biological target: T7, Microphthalmia-associated transcription factor; assay: TRPM1 promoter luciferase signal decrease, dose response, MITF inhibitor project, cell-based, SK-MEL-5, cherry-picked, set 4 (AID 493102); format: functional

COc1ccc(C(C(=O)NC2CCCCC2)N(C(=O)CCl)c2cccc(Cl)c2)cc1 (configuration not stated)
AC50 [1]: < 0.5 µM (active)
EC50 [2]: 0.122 µM (active)
EC50 [3]: 1.09 µM (active)
AC50 [4]: 1.02 µM (active)
IC50 [5]: 0.032 µM (active)
EC50 [6]: 0.691 µM (active)
EC50 [7]: 0.987 µM (inconclusive)
EC50 [8]: 0.202 µM (active)
EC50 [9]: 0.518 µM (active)
EC50 [10]: 0.176 µM (inconclusive)
EC50 [11]: 1.36 µM (active)
EC50 [12]: 4.57 µM (active)

Cc1ccc(OCCc2ccc(Cl)cc2Cl)c([N+](=O)[O-])n1
EC50 [13]: 2.1 µM (active)

COc1ccc2nc(C)cc(Sc3nc4ccccc4s3)c2c1
CC50 [14]: 26.4 µM (active)
IC50 [15]: > 80 µM (inactive)
AC50 [16]: 2.87 µM (active)
EC50 [8]: 2.89 µM (active)
IC50 [17]: 1.91 µM (active)
CC50 [18]: 14.3 µM (active)
EC50 [19]: 0.479 µM (active)

C/C(=N\NC(=O)C(C)Oc1ccc([N+](=O)[O-])cc1)c1ccccn1 (configuration not stated)
IC50 [20]: 9.48 µM (active)
EC50 [21]: > 40 µM (inactive)
IC50 [22]: 3.19 µM (active)
AC50 [23]: 1.12 µM (active)
IC50 [24]: > 32 µM
CC50 [25]: 8.26 µM (active)
AC50 [26]: 2.38 µM (active)
IC50 [27]: 6.28 µM (active)
IC50 [28]: 6.88 µM (active)
CC50 [29]: 1.54 µM (active)
CC50 [30]: 1.8 µM (active)
CC50 [31]: 3.54 µM (active)
EC50 [32]: > 31.5 µM (inactive)

O=C(COc1ccccc1Cl)Nc1nnc(-c2ccc3c(c2)CCCC3)o1
EC50 [33]: 10 µM (active)

CCCCN=c1nc(S)n(-c2ccccc2)c(C)c1C(C)=O
AC50 [26]: > 350 µM (inactive)
AC50 [34]: > 350 µM (inactive)
AC50 [35]: > 350 µM (inactive)
